Earlier results, collected in US20230381267A1, “OXYTOCIN TREATMENT FOR HYPERMOBILE EHLERS-DANLOS SYNDROME” (Baylor College of Medicine, priority 2020, published 2023).

Columns and labels:
[1] = intranasal, individuals with tension-type headache and migraine
[2] = IV administration, irritable bowel syndrome
[3] = humans, preliminary research

Q: With `CC[C@H](C)[C@@H]1NC(=O)[C@H](Cc2ccc(O)cc2)NC(=O)[C@@H](N)CSSC[C@@H](C(=O)N2CCC[C@H]2C(=O)N[C@@H](CC(C)C)C(=O)NCC(N)=O)NC(=O)[C@H](CC(N)=O)NC(=O)[C@H](CCC(N)=O)NC1=O` [oxytocin] as the molecule, how does the headache relief [1] read?
A: relieve headache in a dose-dependent manner

Q: What about the “effect on pain tolerance” value [2] of the same molecule?
A: significant effect

Q: What about the “average effect (Cohen d)” value (across central and peripheral modes of administration and type of noxious stimulus (heat, electric)) of the same molecule?
A: 2.28

Q: And the “duration of analgesic effects” value (after exogenous administration)?
A: approximately 1 hour

Q: And the “time at which analgesic effects were strongest” value (after exogenous administration)?
A: 20 to 30 min

Q: And the “animal studies in which oxytocin increased pain tolerance” value (systematic review Rash, AguirreCamacho and Campbell 2014)?
A: 29 of 33

Q: What about the pain sensitivity [3] of the same molecule?
A: decreases pain sensitivity
